Biological target: T1, PAK4 (Homo sapiens, UniProt O96013)
T1 construct: purchased Reaction Biology Corporation (Malvern, PA, USA)
Test: HotSpot kinase assay (Reaction Biology Corp.), PAK4 enzyme inhibition
Format: biochemical
Settings: ATP 10 μM; for inhibition at 20 µM: relative percentage inhibition at 20 μM of compounds with staurosporine, read-out: PAK4 enzyme inhibition % inhibitory activity; for IC50: 10-dose, 3-fold serial dilution starting at 100 μM
Method: To examine the enzyme activity, HotSpot kinase assay was performed at Reaction Biology Corporation (Malvern, PA, USA). The kinase and substrate pairs were prepared in reaction buffer: 20 mM HEPES at pH 7.5, 10 mM MgCl2, 1 mM EGTA, 0.02% Brij 35, 0.02 mg/mL BSA, 0.1 mM Na3VO4, 2 mM DTT, and 1% DMSO. Compounds were added into the kinase reaction mixture and incubated for 20 min. Then, ^32 P-ATP was introduced to the mixture to initiate the reaction carried out at 10 μM of ATP concentration. After 2 h at room temperature, the mixture was spotted onto P81 ion exchange paper and kinase activity was then evaluated utilising the filter-binding method. Compounds were tested for single dose enzyme inhibition at a concentration of 20 μM. For the control compound, staurosporine was tested in a 10-dose IC50 mode. To determine the IC50 value, the compounds were tested for 10-doses with 3-fold serial dilution starting at 100 μM.
Synthesised compounds were evaluated for their in vitro PAK4 enzyme inhibitory activities. In vitro kinase assays were performed using HotSpot kinase assays for relative enzyme inhibitory activity at a single concentration (20 μM) and IC50 assessment at an ATP concentration of 10 μM (Figure 1(B)). […] For the allosteric pocket binder, cyclohexyl group (SPA7012) was preferable to the smaller dimethyl (SPA7011) or hydroxymethyl group (SPA7013), and the aromatic ring (SPA7014) reduced activity compared to the saturated ring (SPA7012). In vitro enzyme IC50 values appeared in the order of SPA7012, SPA7017, and SPA7016. […] Molecular docking analysis was performed on the human PAK4 catalytic domain structure complexed with GNE-2861 (PDB code: 4O0V). The binding pose of SPA7012 overlapped well with the crystal structure of GNE-2861, with the allosteric binder properly positioned in the specific back pocket. The oxygen atom in the tertiary alcohol of the hydrophobic allosteric binder formed hydrogen bonds with the backbone of Phe459 and the side chain of Glu366 (Figure 1(D)). The amine group and nitrogen atom in the pyrazolo[3,4-d]pyrimidine core scaffold also formed hydrogen bonds with Lue398 at the hinge region. Finally, SPA7012 was decided as a lead compound for further examination with satisfactory potency and subtype selectivity.

T1 sequence (O96013 whole entry): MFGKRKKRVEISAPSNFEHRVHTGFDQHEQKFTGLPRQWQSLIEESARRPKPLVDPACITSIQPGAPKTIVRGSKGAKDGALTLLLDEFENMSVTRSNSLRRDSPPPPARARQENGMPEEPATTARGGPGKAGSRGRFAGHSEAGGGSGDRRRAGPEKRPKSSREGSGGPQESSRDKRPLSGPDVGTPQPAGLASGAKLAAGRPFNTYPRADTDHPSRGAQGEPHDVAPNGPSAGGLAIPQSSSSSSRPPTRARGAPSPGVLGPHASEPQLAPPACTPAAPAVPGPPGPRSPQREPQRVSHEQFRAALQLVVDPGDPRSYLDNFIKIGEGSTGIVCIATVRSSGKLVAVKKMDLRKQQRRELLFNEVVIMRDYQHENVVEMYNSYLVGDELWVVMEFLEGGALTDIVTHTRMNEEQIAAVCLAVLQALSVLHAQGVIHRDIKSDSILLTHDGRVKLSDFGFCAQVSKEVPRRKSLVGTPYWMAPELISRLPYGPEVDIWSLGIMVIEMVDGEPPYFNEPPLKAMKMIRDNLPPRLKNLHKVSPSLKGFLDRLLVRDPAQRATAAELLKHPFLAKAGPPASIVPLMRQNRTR

Row | inhibition at 20 µM [%] | IC50 [µM] | SMILES
1 | 60 | – | Cc1nn(-c2cccc(C#CC(C)(C)O)c2)c2ncnc(N)c12 [Compound 14a, 4–(3–(4-Amino-3-methylpyrazolo[3,4-d]pyrimidin-1-yl)phenyl)-2-methylbutyn-2-ol]
2 | 32 | – | CC(C)(O)C#Cc1cccc(-n2c3ccccc3c3c(N)nccc32)c1 [Compound 10a, 4–(3–(1-Aminopyrido[4,3-b]indol-5-yl)phenyl)-2-methylbutyn-2-ol]
3 | 65 | – | Cc1nn(-c2cccc(C#CC(C)(O)c3ccccc3)c2)c2ncnc(N)c12 (centres unmarked) [Compound 14d, 4–(3-(4-Amino-3-methylpyrazolo[3,4-d]pyrimidin-1-yl)phenyl)-2-phenylbutyn-2-ol]
4 | 54 | 34 | Nc1nccc2c1c1ccccc1n2-c1cccc(C#CC2(O)CCCCC2)c1 [Compound 10b, 3-(1-Aminopyrido[4,3-b]indol-5-yl)phenylethynylcyclohexan-1-ol]
5 | 29 | – | CC(O)(C#Cc1cccc(-n2c3ccccc3c3c(N)nccc32)c1)CO (centres unmarked) [Compound 10c, 4–(3-(1-Aminopyrido[4,3-b]indol-5-yl)phenyl)-2-methylbutyn-1,2-diol]
6 | 88 | 9.92 | Nc1ncnc2c1c(CCCN1CCOCC1)nn2-c1cccc(C#CC2(O)CCCCC2)c1 [Compound 18a, (3–(4-Amino-3–(3-morpholin-4-ylpropyl)pyrazolo[3,4-d]pyrimidin-1-yl)phenylethynyl)cyclohexanol]
7 | 90 | 4.41 | Nc1ncnc2c1c(CCCN1CCCCC1)nn2-c1cccc(C#CC2(O)CCCCC2)c1 [Compound 18b, (3-[4-Amino-3–(3-piperidin-1-ylpropyl)pyrazolo[3,4-d]pyrimidin-1-yl]phenylethynyl)cyclohexanol]
8 | 36 | – | Cc1nn(-c2cccc(C#CC(C)(O)CO)c2)c2ncnc(N)c12 (centres unmarked) [Compound 14c, 4–(3-(4-Amino-3-methylpyrazolo[3,4-d]pyrimidin-1-yl)phenyl)-2-methylbutyn-1,2-diol]

Reference: PMC9354638, “Targeting p21-activated kinase 4 (PAK4) with pyrazolo[3,4-d]pyrimidine derivative SPA7012 attenuates hepatic ischaemia-reperfusion injury in mice” (Journal of Enzyme Inhibition and Medicinal Chemistry, 2022)
